In patent publication US20020156236A1, “Binding sites for phosphotyrosine binding domains” (priority 1995, published 2002):
Where a SMILES comes first, the peptide text is derived from it.

The compounds below were run against T1, PTB domain/c-erbB2 binding (GST-PTB domain of SHC; c-erbB2 from SKBR3 lysate) (Homo sapiens, UniProt P29353) (assay: biochemical). Conditions: Inhibition (relative inhibition scale of IC50).
T1 construct: GST-PTB domain fusion proteins were expressed from recombinant baculovirus in sf9 cells; made in house; host or cells: Sf9 cells (recombinant baculovirus) for GST-PTB; c-erbB2 endogenous in SKBR3 cell lysate
T1 sequence (P29353 156-341): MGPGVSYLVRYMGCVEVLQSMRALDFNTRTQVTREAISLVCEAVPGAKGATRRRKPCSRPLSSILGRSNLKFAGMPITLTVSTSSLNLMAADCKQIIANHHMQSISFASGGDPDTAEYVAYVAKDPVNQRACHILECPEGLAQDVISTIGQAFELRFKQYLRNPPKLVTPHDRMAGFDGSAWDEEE

SMILES | IC50 [µM]
CC(C)C[C@H](NC(=O)[C@H](CC(N)=O)NC(=O)[C@H](CC(=O)O)NC(=O)[C@H](C)NC(=O)[C@H](C)NC(=O)[C@@H]1CCCN1C(=O)[C@H](CO)NC(=O)[C@H](Cc1ccccc1)NC(=O)[C@H](C)NC(=O)[C@@H]1CCCN1)C(=O)N[C@@H](Cc1ccc(O)cc1)C(=O)N[C@@H](Cc1ccc(OP(=O)(O)O)cc1)C(=O)N[C@@H](Cc1c[nH]c2ccccc12)C(=O)N[C@@H](CC(=O)O)C(=O)N[C@@H](CCC(N)=O)C(=O)N[C@@H](CC(N)=O)C(=O)N[C@@H](CO)C(=O)N[C@@H](CO)C(=O)N[C@@H](CCC(=O)O)C(=O)N[C@@H](CCC(N)=O)C(=O)NCC(=O)O [PAFSPAADNLY (pY) WDQNSSEQG, PAFSPAADNLY(pY)WDQNSSEQG] (HELM PEPTIDE1{P.A.F.S.P.A.A.D.N.L.Y.[O=C([C@H](Cc1ccc(OP(=O)(O)O)cc1)N[*:1])[*:2]].W.D.Q.N.S.S.E.Q.G}$$$$V2.0) | 0.5 to 5
CC(C)C[C@H](NC(=O)[C@H](CC(N)=O)NC(=O)[C@H](C)NC(=O)[C@H](Cc1ccccc1)NC(=O)[C@H](C)NC(=O)[C@@H]1CCCN1C(=O)[C@H](CO)NC(=O)[C@H](Cc1ccccc1)NC(=O)[C@H](C)NC(=O)[C@@H]1CCCN1)C(=O)N[C@@H](Cc1ccc(O)cc1)C(=O)N[C@@H](Cc1ccc(OP(=O)(O)O)cc1)C(=O)N[C@@H](Cc1c[nH]c2ccccc12)C(=O)N[C@@H](CC(=O)O)C(=O)N[C@@H](CCC(N)=O)C(=O)N[C@@H](CC(N)=O)C(=O)N[C@@H](CO)C(=O)N[C@@H](CO)C(=O)N[C@@H](CCC(=O)O)C(=O)N[C@@H](CCC(N)=O)C(=O)NCC(=O)O [PAFSPAFANLY (pY) WDQNSSEQG, PAFSPAFANLY(pY)WDQNSSEQG] (HELM PEPTIDE1{P.A.F.S.P.A.F.A.N.L.Y.[O=C([C@H](Cc1ccc(OP(=O)(O)O)cc1)N[*:1])[*:2]].W.D.Q.N.S.S.E.Q.G}$$$$V2.0) | 5 to 50
CC(C)C[C@H](NC(=O)[C@H](C)NC(=O)[C@H](CC(=O)O)NC(=O)[C@H](Cc1ccccc1)NC(=O)[C@H](C)NC(=O)[C@@H]1CCCN1C(=O)[C@H](CO)NC(=O)[C@H](Cc1ccccc1)NC(=O)[C@H](C)NC(=O)[C@@H]1CCCN1)C(=O)N[C@@H](Cc1ccc(O)cc1)C(=O)N[C@@H](Cc1ccc(OP(=O)(O)O)cc1)C(=O)N[C@@H](Cc1c[nH]c2ccccc12)C(=O)N[C@@H](CC(=O)O)C(=O)N[C@@H](CCC(N)=O)C(=O)N[C@@H](CC(N)=O)C(=O)N[C@@H](CO)C(=O)N[C@@H](CO)C(=O)N[C@@H](CCC(=O)O)C(=O)N[C@@H](CCC(N)=O)C(=O)NCC(=O)O [PAFSPAFDALY (pY) WDQNSSEQG] (HELM PEPTIDE1{P.A.F.S.P.A.F.D.A.L.Y.[O=C([C@H](Cc1ccc(OP(=O)(O)O)cc1)N[*:1])[*:2]].W.D.Q.N.S.S.E.Q.G}$$$$V2.0) | > 50
CC(C)C[C@H](NC(=O)[C@H](CC(=O)O)NC(=O)[C@H](CC(=O)O)NC(=O)[C@H](Cc1ccccc1)NC(=O)[C@H](C)NC(=O)[C@@H]1CCCN1C(=O)[C@H](CO)NC(=O)[C@H](Cc1ccccc1)NC(=O)[C@H](C)NC(=O)[C@@H]1CCCN1)C(=O)N[C@@H](Cc1ccc(O)cc1)C(=O)N[C@@H](Cc1ccc(OP(=O)(O)O)cc1)C(=O)N[C@@H](Cc1c[nH]c2ccccc12)C(=O)N[C@@H](CC(=O)O)C(=O)N[C@@H](CCC(N)=O)C(=O)N[C@@H](CC(N)=O)C(=O)N[C@@H](CO)C(=O)N[C@@H](CO)C(=O)N[C@@H](CCC(=O)O)C(=O)N[C@@H](CCC(N)=O)C(=O)NCC(=O)O [PAFSPAFDDLY (pY) WDQNSSEQG] (HELM PEPTIDE1{P.A.F.S.P.A.F.D.D.L.Y.[O=C([C@H](Cc1ccc(OP(=O)(O)O)cc1)N[*:1])[*:2]].W.D.Q.N.S.S.E.Q.G}$$$$V2.0) | > 50
C[C@H](NC(=O)[C@@H]1CCCN1)C(=O)N[C@@H](Cc1ccccc1)C(=O)N[C@@H](CO)C(=O)N1CCC[C@H]1C(=O)N[C@@H](C)C(=O)N[C@@H](Cc1ccccc1)C(=O)N[C@@H](CC(=O)O)C(=O)N[C@@H](CC(N)=O)C(=O)N[C@@H](C)C(=O)N[C@@H](Cc1ccc(O)cc1)C(=O)N[C@@H](Cc1ccc(OP(=O)(O)O)cc1)C(=O)N[C@@H](Cc1c[nH]c2ccccc12)C(=O)N[C@@H](CC(=O)O)C(=O)N[C@@H](CCC(N)=O)C(=O)N[C@@H](CC(N)=O)C(=O)N[C@@H](CO)C(=O)N[C@@H](CO)C(=O)N[C@@H](CCC(=O)O)C(=O)N[C@@H](CCC(N)=O)C(=O)NCC(=O)O [PAFSPAFDNAY (pY) WDQNSSEQG, PAFSPAFDNAY(pY)WDQNSSEQG] (HELM PEPTIDE1{P.A.F.S.P.A.F.D.N.A.Y.[O=C([C@H](Cc1ccc(OP(=O)(O)O)cc1)N[*:1])[*:2]].W.D.Q.N.S.S.E.Q.G}$$$$V2.0) | 0.5 to 5
CC(C)C[C@H](NC(=O)[C@H](CC(N)=O)NC(=O)[C@H](CC(=O)O)NC(=O)[C@H](Cc1ccccc1)NC(=O)[C@H](C)NC(=O)[C@@H]1CCCN1C(=O)[C@H](CO)NC(=O)[C@H](Cc1ccccc1)NC(=O)[C@H](C)NC(=O)[C@@H]1CCCN1)C(=O)N[C@@H](C)C(=O)N[C@@H](Cc1ccc(O)cc1)C(=O)N[C@@H](Cc1ccc(OP(=O)(O)O)cc1)C(=O)N[C@@H](Cc1c[nH]c2ccccc12)C(=O)N[C@@H](CC(=O)O)C(=O)N[C@@H](CCC(N)=O)C(=O)N[C@@H](CC(N)=O)C(=O)N[C@@H](CO)C(=O)N[C@@H](CO)C(=O)N[C@@H](CCC(=O)O)C(=O)N[C@@H](CCC(N)=O)C(=O)NCC(=O)O [PAFSPAFDNLAY (pY) WDQNSSEQG] (HELM PEPTIDE1{P.A.F.S.P.A.F.D.N.L.A.Y.[O=C([C@H](Cc1ccc(OP(=O)(O)O)cc1)N[*:1])[*:2]].W.D.Q.N.S.S.E.Q.G}$$$$V2.0) | 0.5 to 5
CC(C)C[C@H](NC(=O)[C@H](CC(N)=O)NC(=O)[C@H](CC(=O)O)NC(=O)[C@H](Cc1ccccc1)NC(=O)[C@H](C)NC(=O)[C@@H]1CCCN1C(=O)[C@H](CO)NC(=O)[C@H](Cc1ccccc1)NC(=O)[C@H](C)NC(=O)[C@@H]1CCCN1)C(=O)N[C@@H](Cc1ccccc1)C(=O)N[C@@H](Cc1ccc(O)cc1)C(=O)N[C@@H](Cc1ccc(OP(=O)(O)O)cc1)C(=O)N[C@@H](Cc1c[nH]c2ccccc12)C(=O)N[C@@H](CC(=O)O)C(=O)N[C@@H](CCC(N)=O)C(=O)N[C@@H](CC(N)=O)C(=O)N[C@@H](CO)C(=O)N[C@@H](CO)C(=O)N[C@@H](CCC(=O)O)C(=O)N[C@@H](CCC(N)=O)C(=O)NCC(=O)O [PAFSPAFDNLFY (pY) WDQNSSEQG] (HELM PEPTIDE1{P.A.F.S.P.A.F.D.N.L.F.Y.[O=C([C@H](Cc1ccc(OP(=O)(O)O)cc1)N[*:1])[*:2]].W.D.Q.N.S.S.E.Q.G}$$$$V2.0) | 0.5 to 5
CC(C)C[C@H](NC(=O)[C@H](CC(N)=O)NC(=O)[C@H](CC(=O)O)NC(=O)[C@H](Cc1ccccc1)NC(=O)[C@H](C)NC(=O)[C@@H]1CCCN1C(=O)[C@H](CO)NC(=O)[C@H](Cc1ccccc1)NC(=O)[C@H](C)NC(=O)[C@@H]1CCCN1)C(=O)N[C@@H](Cc1ccc(O)cc1)C(=O)N[C@@H](Cc1ccc(OP(=O)(O)O)cc1)C(=O)N[C@@H](C)C(=O)N[C@@H](CC(=O)O)C(=O)N[C@@H](CCC(N)=O)C(=O)N[C@@H](CC(N)=O)C(=O)N[C@@H](CO)C(=O)N[C@@H](CO)C(=O)N[C@@H](CCC(=O)O)C(=O)N[C@@H](CCC(N)=O)C(=O)NCC(=O)O [PAFSPAFDNLY (pY) ADQNSSEQG] (HELM PEPTIDE1{P.A.F.S.P.A.F.D.N.L.Y.[O=C([C@H](Cc1ccc(OP(=O)(O)O)cc1)N[*:1])[*:2]].A.D.Q.N.S.S.E.Q.G}$$$$V2.0) | > 50
CC(C)C[C@H](NC(=O)[C@H](CC(N)=O)NC(=O)[C@H](CC(=O)O)NC(=O)[C@H](Cc1ccccc1)NC(=O)[C@H](C)NC(=O)[C@@H]1CCCN1C(=O)[C@H](CO)NC(=O)[C@H](Cc1ccccc1)NC(=O)[C@H](C)NC(=O)[C@@H]1CCCN1)C(=O)N[C@@H](Cc1ccc(O)cc1)C(=O)N[C@@H](Cc1ccc(OP(=O)(O)O)cc1)C(=O)N[C@@H](Cc1ccccc1)C(=O)N[C@@H](CC(=O)O)C(=O)N[C@@H](CCC(N)=O)C(=O)N[C@@H](CC(N)=O)C(=O)N[C@@H](CO)C(=O)N[C@@H](CO)C(=O)N[C@@H](CCC(=O)O)C(=O)N[C@@H](CCC(N)=O)C(=O)NCC(=O)O [PAFSPAFDNLY (pY) FDQNSSEQG, PAFSPAFDNLY(pY)FDQNSSEQG] (HELM PEPTIDE1{P.A.F.S.P.A.F.D.N.L.Y.[O=C([C@H](Cc1ccc(OP(=O)(O)O)cc1)N[*:1])[*:2]].F.D.Q.N.S.S.E.Q.G}$$$$V2.0) | 0.5 to 5
CC(C)C[C@H](NC(=O)[C@H](CC(N)=O)NC(=O)[C@H](CC(=O)O)NC(=O)[C@H](Cc1ccccc1)NC(=O)[C@H](C)NC(=O)[C@@H]1CCCN1C(=O)[C@H](CO)NC(=O)[C@H](Cc1ccccc1)NC(=O)[C@H](C)NC(=O)[C@@H]1CCCN1)C(=O)N[C@@H](Cc1ccc(O)cc1)C(=O)N[C@@H](Cc1ccc(OP(=O)(O)O)cc1)C(=O)N[C@@H](Cc1c[nH]c2ccccc12)C(=O)N[C@@H](C)C(=O)N[C@@H](CCC(N)=O)C(=O)N[C@@H](CC(N)=O)C(=O)N[C@@H](CO)C(=O)N[C@@H](CO)C(=O)N[C@@H](CCC(=O)O)C(=O)N[C@@H](CCC(N)=O)C(=O)NCC(=O)O [PAFSPAFDNLY (pY) WAQNSSEQG, PAFSPAFDNLY(pY)WAQNSSEQG] (HELM PEPTIDE1{P.A.F.S.P.A.F.D.N.L.Y.[O=C([C@H](Cc1ccc(OP(=O)(O)O)cc1)N[*:1])[*:2]].W.A.Q.N.S.S.E.Q.G}$$$$V2.0) | 0.05 to 0.5
CC(C)C[C@H](NC(=O)[C@H](CC(N)=O)NC(=O)[C@H](CC(=O)O)NC(=O)[C@H](Cc1ccccc1)NC(=O)[C@H](C)NC(=O)[C@@H]1CCCN1C(=O)[C@H](CO)NC(=O)[C@H](Cc1ccccc1)NC(=O)[C@H](C)NC(=O)[C@@H]1CCCN1)C(=O)N[C@@H](Cc1ccc(O)cc1)C(=O)N[C@@H](Cc1ccc(OP(=O)(O)O)cc1)C(=O)N[C@@H](Cc1c[nH]c2ccccc12)C(=O)N[C@@H](CC(=O)O)C(=O)N[C@@H](C)C(=O)N[C@@H](CC(N)=O)C(=O)N[C@@H](CO)C(=O)N[C@@H](CO)C(=O)N[C@@H](CCC(=O)O)C(=O)N[C@@H](CCC(N)=O)C(=O)NCC(=O)O [PAFSPAFDNLY (pY) WDANSSEQG, PAFSPAFDNLY(pY)WDANSSEQG] (HELM PEPTIDE1{P.A.F.S.P.A.F.D.N.L.Y.[O=C([C@H](Cc1ccc(OP(=O)(O)O)cc1)N[*:1])[*:2]].W.D.A.N.S.S.E.Q.G}$$$$V2.0) | 0.5 to 5
